The results in this text go back to the Kinase Knowledgebase extract (Sharma et al. 2016).

Values joined by “and” are separate entries in the source; they are usually repeats but may differ in a detail not shown here. Equal values may be shown once. Where only a bound is given, the exact number is not on record here.

Experiment [1] addresses EGFR (human) (UniProt P00533). The settings on record: a431.
Experiment [2] addresses EGFR (human) (UniProt P00533). The settings on record: dher14.
Experiment [3] deals with EGFR (human) (UniProt P00533). The settings on record: A431.
Chain of EGFR (human) (P00533 whole entry, looked up): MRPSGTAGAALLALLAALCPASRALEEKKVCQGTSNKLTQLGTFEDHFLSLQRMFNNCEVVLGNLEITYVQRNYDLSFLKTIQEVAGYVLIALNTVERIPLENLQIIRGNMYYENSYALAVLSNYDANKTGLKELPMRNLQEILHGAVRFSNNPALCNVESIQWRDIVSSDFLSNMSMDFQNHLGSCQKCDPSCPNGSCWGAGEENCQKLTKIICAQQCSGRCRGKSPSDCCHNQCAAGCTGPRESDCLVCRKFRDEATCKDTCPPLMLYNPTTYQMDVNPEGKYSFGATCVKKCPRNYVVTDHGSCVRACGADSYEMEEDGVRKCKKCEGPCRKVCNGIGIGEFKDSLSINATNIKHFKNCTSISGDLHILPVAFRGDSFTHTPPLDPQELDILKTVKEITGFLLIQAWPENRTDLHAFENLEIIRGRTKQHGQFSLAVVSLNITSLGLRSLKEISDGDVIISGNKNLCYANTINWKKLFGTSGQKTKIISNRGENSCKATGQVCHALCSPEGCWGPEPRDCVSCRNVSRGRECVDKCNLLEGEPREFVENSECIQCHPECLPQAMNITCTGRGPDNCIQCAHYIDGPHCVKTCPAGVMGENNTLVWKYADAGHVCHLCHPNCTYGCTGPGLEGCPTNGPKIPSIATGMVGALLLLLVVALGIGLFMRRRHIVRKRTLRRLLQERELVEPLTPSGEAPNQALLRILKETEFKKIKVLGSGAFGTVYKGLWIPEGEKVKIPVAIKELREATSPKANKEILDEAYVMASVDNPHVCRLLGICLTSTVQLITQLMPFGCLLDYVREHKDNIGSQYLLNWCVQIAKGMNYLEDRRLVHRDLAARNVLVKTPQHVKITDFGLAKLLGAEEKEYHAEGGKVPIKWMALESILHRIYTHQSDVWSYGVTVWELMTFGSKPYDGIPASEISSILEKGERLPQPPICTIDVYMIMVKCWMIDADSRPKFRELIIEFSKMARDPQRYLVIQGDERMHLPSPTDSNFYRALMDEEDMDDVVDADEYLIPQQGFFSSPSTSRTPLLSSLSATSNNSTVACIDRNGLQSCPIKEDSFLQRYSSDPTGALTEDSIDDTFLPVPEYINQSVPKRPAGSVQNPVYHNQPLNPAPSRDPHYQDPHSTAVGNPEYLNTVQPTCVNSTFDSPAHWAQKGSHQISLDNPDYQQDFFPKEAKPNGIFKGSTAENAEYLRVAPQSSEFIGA

What is called IC50 is the concentration that inhibits the measured activity by half. High values mean weaker potency in that assay, low ones greater potency in that assay. As for `O=C(CCl)Nc1ccc2ncnc(Nc3cc(Cl)c(Cl)cc3F)c2c1`, on EGFR (human) [1], the IC50 was 5 to 25 nM and 25 to 50 nM. On the same count and under the same terms, in the case of `COc1cc2ncnc(Nc3cc(Cl)c(Cl)cc3F)c2cc1OC` it was 3 to 5 nM. With `COCC(=O)Nc1ccc2ncnc(Nc3cc(Cl)c(Cl)cc3F)c2c1`, the concentration for half-maximal inhibition (IC50) on EGFR (human) [2] is above 250 nM; against EGFR (human) [1] it was 1000 to 10000 nM. As for `C=CC(=O)Nc1cc2c(Nc3cccc(Br)c3)ncnc2cc1N1CCN(C)CC1`, the IC50 at EGFR (human) [1] fell in the range of 50 to 250 nM; against EGFR (human) [3], 500 to 13000 nM. On to `C=CC(=O)Nc1ccc2ncnc(Nc3cc(Cl)c(Cl)cc3F)c2c1`, for which, on EGFR (human) [1], the IC50 fell in the range of 6.7 to 20 nM. `COCC(=O)Nc1ccc2ncnc(Nc3cccc(I)c3)c2c1` came in with an IC50 on EGFR (human) [1] of 1000 to 5000 nM.
